Laboratory results from patent publication US11702422B2, “Imidazopyridazines as modulators of IL-17” (Janssen Pharmaceutica NV, priority 2020, dated 2023).

What was measured:
[1] = tested on: IL-17A-induced G-CSF production in human normal keratinocyte (NHK); test: NHK Assay: IL-17A-induced G-CSF production in human normal keratinocytes; format: cell-based; conditions: Homo sapiens, Keratinocyte, 24 h, adult normal human keratinocytes, IL-17A 5 ng/mL, simple average if tested more than once
Outline: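 G-CSF released by primary adult human keratinocytes after 24 h at 37° C was quantified by HTRF via standard curve to give IC50. Stimulus was 5 ng/mL IL-17A pre-mixed 1 h at rt with compound dilutions, in 5% FBS and 0.2% DMSO. Cell viability was assessed in parallel with CellTiter-Glo.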

[2] = molecular target: IL-17A(FLAG-Tagged): IL-17RA(His-Tagged) (Homo sapiens, UniProt Q16552, K93Q); test: IL-17A(FLAG-Tagged): IL-17RA(His-Tagged) Binding Disruption Eu-HTRF Assay; conditions: IL-17A/IL-17RA binding disruption, simple average if tested more than once
Outline: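 IC50 comes from a one-site competition fit of the HTRF 665/620 nm ratio. Compound dilutions (2-fold, 22 points) were held 1 h rt with FLAG-tagged IL-17A dimer, then His-tagged IL-17RA plus Eu-cryptate anti-FLAG and D2 anti-His antibodies were added for 2 h rt.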

[3] = tested on: patients with PsA; conditions: PsA with inadequate response to conventional synthetic disease-modifying antirheumatic drug; cited from earlier work
[4] = tested on: SCIDhu model of human myeloma; conditions: weekly for 4 weeks after first detection of tumor, compared to isotype control mice; cited from earlier work
[5] = tested on: patients with active PsA; conditions: compared with anti-TNFα antibodies; cited from earlier work
[6] = tested on: patients with moderate-to-severe HS; conditions: seven of nine patients, open-label pilot-trial; cited from earlier work

Chain of UniProt Q16552 (Q16552 with tags, fused parts or gaps K93Q): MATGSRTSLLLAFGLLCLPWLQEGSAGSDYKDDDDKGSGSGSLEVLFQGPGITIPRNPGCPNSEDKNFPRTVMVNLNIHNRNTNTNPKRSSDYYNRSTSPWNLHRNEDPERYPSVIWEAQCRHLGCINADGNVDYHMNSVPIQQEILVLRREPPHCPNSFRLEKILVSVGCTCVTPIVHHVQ

| IC50 [2] [nM] | Compound | IC50 [1] [nM] | other results |
| --- | --- | --- | --- |
| 140 | CC(C)c1scnc1C(=O)N[C@H](c1cn2ncc([C@H](NC(=O)CCC(F)(F)F)C3CC3)cc2n1)C1CCC(F)(F)CC1 [Example 480, N—((S)-(7-((R)-Cyclopropyl(4,4,4-trifluorobutanamido)methyl)imidazo[1,2-b]pyridazin-2-yl)(4,4-difluorocyclohexyl)methyl)-5-isopropylthiazole-4-carboxamide] | 470 |  |
| 550 | CC(C)n1nnc(C(=O)N[C@H](c2cn3ncc([C@H](NC(=O)CCC(F)(F)F)C4CC4)cc3n2)C2CCC(F)(F)CC2)n1 [Example 484, N—[(S)-[7-[(R)-Cyclopropyl-(4,4,4-trifluorobutanamido)methyl]imidazo[1,2-b]pyridazin-2-yl]-(4,4-difluorocyclohexyl)methyl]-2-isopropyl-tetrazole-5-carboxamide] | 4600 |  |
| 920 | O=C(CCC(F)(F)F)N[C@@H](c1cnn2cc([C@@H](NC(=O)c3cnn(CCN4CC(F)(F)C4)n3)C3CCC(F)(F)CC3)nc2c1)C1CC1 [Example 485, N—[(S)-[7-[(R)-Cyclopropyl-(4,4,4-trifluorobutanamido)methyl]imidazo[1,2-b]pyridazin-2-yl]-(4,4-difluorocyclohexyl)methyl]-2-[2-(3,3-difluoroazetidin-1-yl)ethyl]triazole-4-carboxamide] | 310 |  |
| 45 | N#CC1([C@@H](NC(=O)CC2CC(F)(F)C2)c2cnn3cc([C@@H](NC(=O)c4nonc4C4CC4)C4CCC(F)(F)CC4)nc3c2)CCC1 [Example 487, N—((S)-(7-((S)-(1-Cyanocyclobutyl)(2-(3,3-difluorocyclobutyl)acetamido)methyl)imidazo[1,2-b]pyridazin-2-yl)(4,4-difluorocyclohexyl)methyl)-4-cyclopropyl-1,2,5-oxadiazole-3-carboxamide] | 6 |  |
| 54 | [2H]C([2H])([2H])n1nccc1C(=O)N[C@H](c1cn2ncc([C@H](NC(=O)CC3CC(F)(F)C3)C3CC3)cc2n1)C1CCC(F)(F)CC1 [Example 489, N—((S)-(7-((R)-Cyclopropyl(2-(3,3-difluorocyclobutyl)acetamido)methyl)imidazo[1,2-b]pyridazin-2-yl)(4,4-difluorocyclohexyl)methyl)-1-(methyl-d3)-1H-pyrazole-5-carboxamide] | 140 |  |
| 52 | CC(C)(C[C@H](NC(=O)c1nonc1C1CC1)c1cn2ncc([C@H](NC(=O)CC3CC(F)(F)C3)C3CC3)cc2n1)C(F)(F)F [Example 542, 4-Cyclopropyl-N—((S)-1-(7-((R)-cyclopropyl(2-(3,3-difluorocyclobutyl)acetamido)methyl)imidazo[1,2-b]pyridazin-2-yl)-4,4,4-trifluoro-3,3-dimethylbutyl)-1,2,5-oxadiazole-3-carboxamide] | 46 |  |
| 170 | [2H]C([2H])([2H])C([2H])([2H])n1nccc1C(=O)N[C@@H](CC(C)(C)C(F)(F)F)c1cn2ncc([C@H](NC(=O)CC3CC(F)(F)C3)C3CC3)cc2n1 [Example 545, N—((S)-1-(7-((R)-Cyclopropyl(2-(3,3-difluorocyclobutyl)acetamido)methyl)imidazo[1,2-b]pyridazin-2-yl)-4,4,4-trifluoro-3,3-dimethylbutyl)-1-(ethyl-d5)-1H-pyrazole-5-carboxamide] | 150 |  |

The next lines start with the compound.

| Compound | IC50 [2] [nM] | IC50 [1] [nM] | other results |
| --- | --- | --- | --- |
| C[C@@H](n1ncnc1C(=O)N[C@H](c1cn2ncc([C@H](NC(=O)CCC(F)(F)F)C3CC3)cc2n1)C1CCC(F)(F)CC1)C(F)(F)F [Example 478, N—((S)-(7-((R)-Cyclopropyl(4,4,4-trifluorobutanamido)methyl)imidazo[1,2-b]pyridazin-2-yl)(4,4-difluorocyclohexyl)methyl)-1-((R)-1,1,1-trifluoropropan-2-yl)-1H-1,2,4-triazole-5-carboxamide] | 450 | 850 |  |
| CC(C(F)F)n1ncnc1C(=O)N[C@H](c1cn2ncc([C@H](NC(=O)CCC(F)(F)F)C3CC3)cc2n1)C1CCC(F)(F)CC1 (stereo partly drawn) [Example 479, N—((S)-(7-((R)-Cyclopropyl(4,4,4-trifluorobutanamido)methyl)imidazo[1,2-b]pyridazin-2-yl)(4,4-difluorocyclohexyl)methyl)-1-(1,1-difluoropropan-2-yl)-1H-1,2,4-triazole-5-carboxamide] | 190 | 430 |  |
| CC(C)n1ncnc1C(=O)N[C@H](c1cn2ncc([C@H](NC(=O)CCC(F)(F)F)C3CC3)cc2n1)C1CCC(F)(F)CC1 [Example 483, N—[(S)-[7-[(R)-Cyclopropyl-(4,4,4-trifluorobutanamido)methyl]imidazo[1,2-b]pyridazin-2-yl]-(4,4-difluorocyclohexyl)methyl]-2-isopropyl-1,2,4-triazole-3-carboxamide] | 75 | 380 |  |
| O=C(CCC(F)(F)F)N[C@@H](c1cnn2cc([C@@H](NC(=O)c3cnn(CCNCC(F)(F)CCl)n3)C3CCC(F)(F)CC3)nc2c1)C1CC1 [Example 486, 2-[2-[(3-Chloro-2,2-difluoro-propyl)amino]ethyl]-N—[(S)-[7-[(R)-cyclopropyl-(4,4,4-trifluorobutanamido)methyl]imidazo[1,2-b]pyridazin-2-yl]-(4,4-difluorocyclohexyl)methyl]triazole-4-carboxamide] | 300 | 1100 |  |
| [2H]C([2H])([2H])n1nccc1C(=O)N[C@H](c1cn2ncc([C@H](NC(=O)CCC(F)(F)F)C3CC3)cc2n1)C1CCC(F)(F)CC1 [Example 488, N—((S)-(7-((R)-Cyclopropyl(4,4,4-trifluorobutanamido)methyl)imidazo[1,2-b]pyridazin-2-yl)(4,4-difluorocyclohexyl)methyl)-1-(methyl-d3)-1H-pyrazole-5-carboxamide] | 95 | 220 |  |
| CC(C)(OC[C@H](NC(=O)c1nonc1C1CC1)c1cn2ncc([C@H](NC(=O)CC3CC(F)(F)C3)C3CCOCC3)cc2n1)C(F)(F)F [Example 540, 4-Cyclopropyl-N—((R)-1-(7-((R)-(2-(3,3-difluorocyclobutyl)acetamido)(tetrahydro-2H-pyran-4-yl)methyl)imidazo[1,2-b]pyridazin-2-yl)-2-((1,1,1-trifluoro-2-methylpropan-2-yl)oxy)ethyl)-1,2,5-oxadiazole-3-carboxamide] | 14 | 9.6 |  |
| CC(C)n1nccc1C(=O)N[C@@H](COC(C)(C)C(F)(F)F)c1cn2ncc([C@H](NC(=O)CC3CC(F)(F)C3)C3CCOCC3)cc2n1 [Example 541, N—((R)-1-(7-((R)-(2-(3,3-Difluorocyclobutyl)acetamido)(tetrahydro-2H-pyran-4-yl)methyl)imidazo[1,2-b]pyridazin-2-yl)-2-((1,1,1-trifluoro-2-methylpropan-2-yl)oxy)ethyl)-1-isopropyl-1H-pyrazole-5-carboxamide] | 130 | 29 |  |
| CC(C)n1nccc1C(=O)N[C@@H](CC(C)(C)C(F)(F)F)c1cn2ncc([C@H](NC(=O)CC3CC(F)(F)C3)C3CC3)cc2n1 [Example 543, N—((S)-1-(7-((R)-Cyclopropyl(2-(3,3-difluorocyclobutyl)acetamido)methyl)imidazo[1,2-b]pyridazin-2-yl)-4,4,4-trifluoro-3,3-dimethylbutyl)-1-isopropyl-1H-pyrazole-5-carboxamide] | 180 | 72 |  |
| Cc1nonc1C(=O)N[C@@H](CC(C)(C)C(F)(F)F)c1cn2ncc([C@H](NC(=O)CC3CC(F)(F)C3)C3CC3)cc2n1 [Example 544, N—((S)-1-(7-((R)-Cyclopropyl(2-(3,3-difluorocyclobutyl)acetamido)methyl)imidazo[1,2-b]pyridazin-2-yl)-4,4,4-trifluoro-3,3-dimethylbutyl)-4-methyl-1,2,5-oxadiazole-3-carboxamide] | 120 | 240 |  |
| ixekizumab |  |  | simultaneous improvement of joint and skin disease (ACR50 and PASI100) [3]: superior to adalimumab |
| secukinumab |  |  | bone damage [4]: reduced bone damage; tumor growth [4]: significant inhibition of tumor growth; ACR 20/50/70 response rates [5]: higher ACR 20/50/70 response rates; patients achieving HiSCR [6]: 78% |
